This note sets out measurements from PubChem BioAssay (NCI).

Some test systems named below: A498 renal; ACHN renal; BT-549 breast; COLO 205 colon; HOP-62 NSCLC; OVCAR-3 ovarian; RPMI-8226 leukemia; SF-295 CNS; SNB-75 CNS; UACC-257 melanoma.
What all share (test): NCI tumour cell line growth inhibition, 48 h

Structures are written as SMILES.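 Cultured in 96-well plates, cells were exposed to test compound for 48 hours across five concentrations. GI50 is the concentration that inhibits growth by half. Definition used: TGI = concentration required for complete inhibition of growth.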

As to `CN1CCC(n2cnc(-c3ccc(F)cc3)c2-c2ccnc(Nc3ccccc3)n2)CC1`, the GI50 in the test with A498 renal was 7.77 µM; in the test on ACHN renal, 1.14 µM; in the test with BT-549 breast, 10.4 µM; in the test on COLO 205 colon, 3.34 µM; in the test on HOP-62 NSCLC it was 13.1 µM; in the test with OVCAR-3 ovarian, 7.65 µM. In addition, the GI50 with RPMI-8226 leukemia is over 20.8 µM; in the test with SF-295 CNS, over 19.2 µM; with SNB-75 CNS it was 7.22 µM; in the test with UACC-257 melanoma it was 4.22 µM. In addition, the TGI with A498 renal is over 25 µM; in the test with ACHN renal, over 25 µM; in the test on BT-549 breast, over 25 µM; in the test with COLO 205 colon it was 7.19 µM; in the test on HOP-62 NSCLC it was over 25 µM; with OVCAR-3 ovarian, over 25 µM. Further, the TGI in the test with RPMI-8226 leukemia is over 25 µM; in the test on SF-295 CNS, over 25 µM; in the test on SNB-75 CNS, 24.8 µM; in the test on UACC-257 melanoma it was 9.25 µM.
With `COc1cc(NC(=O)c2cc3ccccc3cc2O)c(OC)cc1Cl`, the GI50 in the test with A498 renal is 1.96 µM; in the test on ACHN renal, 1.81 µM; in the test with BT-549 breast, 1.65 µM; in the test with COLO 205 colon, 2.44 µM; in the test on HOP-62 NSCLC it was 1.44 µM; in the test on OVCAR-3 ovarian it was 1.41 µM. Moreover, the GI50 in the test on RPMI-8226 leukemia was 0.153 µM; in the test on SF-295 CNS it was 1.8 µM; in the test on SNB-75 CNS, 1.44 µM; in the test on UACC-257 melanoma, 2.05 µM. The TGI in the test with A498 renal came out at 5.04 µM; in the test on ACHN renal, 5.23 µM; in the test with BT-549 breast, 5.05 µM; in the test on COLO 205 colon, 8.51 µM; in the test on HOP-62 NSCLC, 4.7 µM; in the test with OVCAR-3 ovarian, 4.1 µM. For the same compound, the TGI with RPMI-8226 leukemia is 1.18 µM; with SF-295 CNS, 4.54 µM; with SNB-75 CNS it was 5.04 µM; in the test on UACC-257 melanoma, 5.55 µM.
